The values below come from PMC5053896 (Journal of the American Chemical Society, 2016).

Converted amounts (≈) assume the structure as drawn. Where two headings read alike, the source gives them in different places.

One experiment has as its target MurX (Mycobacterium tuberculosis, UniProt P9WMW7). The experiment can be described thus: biochemical. Type of experiment: biochemical, M. tuberculosis.
In the next experiment the test system is M. tuberculosis. Description: M. tuberculosis growth inhibition, microdilution broth method. The following applies: for M. tuberculosis growth inhibition MIC50: microdilution broth method. Type of experiment: cell-based. (In general: Broth dilution looks for growth in wells or tubes with falling amounts of substance.)
The next experiment relates to Staphylococcus aureus. Particulars: Staphylococcus aureus infected mice; cited from earlier work.
Experiment [1] has as its system Gram-positive and Gram-negative bacteria. The following applies: both Gram-positive and Gram-negative bacteria; cited from earlier work.
For experiment [2], the target named is WecA (polyprenyl phosphate-GlcNAc-1-phosphate transferase) (Mycobacterium tuberculosis, UniProt P9WMW5). Type of experiment: biochemical, M. tuberculosis. The following applies: for IC50: read-out: WecA inhibition IC50.
The subject of a further experiment is MraY. The following applies: read-out: MraY enzyme inhibitory activity IC50; cited from earlier work.
The next experiment relates to bacteria. The following applies: cited from earlier work.

With `CO[C@H]1[C@@H](O)[C@H](n2ccc(=O)[nH]c2=O)O[C@@H]1[C@@H](O[C@H]1OC(C(=O)N[C@H]2CCCCNC2=O)=C[C@H](O)[C@@H]1O)C(N)=O` [Capuramycin], on MurX, the IC50 stood at 0.22 µM. Also, the MIC50 with M. tuberculosis (Mycobacterium tuberculosis, read-out: M. tuberculosis growth inhibition MIC50) was 6.25 mg/L (≈ 11 µM).

Turning to `CO[C@H]1[C@H](O[C@H]([C@H]2O[C@@H](n3ccc(=O)[nH]c3=O)[C@H](O)[C@@H]2O)[C@H](NCCCNC(=O)[C@@H](NC(=O)[C@@H](NC(=O)N[C@H](C(=O)O)C(C)C)[C@@H]2CCN=C(N)N2)[C@@H](OC(=O)CCCCCCCCCCCCN(O)C(=N)N)C(C)C)C(=O)O)O[C@H](CN)[C@H]1O` [Muraymycin A1], in the experiment with Staphylococcus aureus, the ED50 was 1.1 mg/kg. Besides, in experiment [1], the bactericidal activity result is “bactericidal activity”.

As for `CO[C@H]1[C@H](O[C@H]([C@H]2O[C@@H](n3ccc(=O)[nH]c3=O)[C@H](O)[C@@H]2O)[C@H](NCCCNC(=O)[C@H](CC(C)C)NC(=O)[C@@H](NC(=O)N[C@H](C(=O)O)C(C)C)[C@@H]2CCN=C(N)N2)C(=O)O)O[C@H](CN)[C@H]1O` [Muraymycin D1 (1), Muraymycin D1], the IC50 in experiment [2] was 0.69 µM. The entries for the “M. tuberculosis growth inhibition MIC50” value in the experiment with M. tuberculosis and with M. tuberculosis (listed as 1) were 1.56 mg/L and 1.56 to 6.25 mg/L, respectively.

Consider `COC1C(C(OC2OC(C(=O)NC3CCCCNC3=O)=CC(O)C2O)C(N)=O)OC(n2ccc(=O)[nH]c2=O)C1OC` (stereo not shown) [UT-01320], for which the IC50 in experiment [2] was found to be 0.06 µM. In addition, the “M. tuberculosis growth inhibition MIC50” value in the experiment on M. tuberculosis turned out to be 1.56 mg/L.

Take `CC(C)C[C@H](NC(=O)[C@@H](NC(=O)N[C@H](C(=O)O)C(C)C)[C@@H]1CCN=C(N)N1)C(=O)NCCCN[C@H](C(=O)O)[C@H](O[C@@H]1O[C@H](CN)[C@@H](O)[C@H]1O)[C@H]1O[C@@H](n2ccc(=O)[nH]c2=O)[C@H](O)[C@@H]1O` [muraymycin D2]: the IC50 with MraY is 0.01 µM. The antibacterial activity entry in the experiment with bacteria was “no significant antibacterial activity”.

Take “Muraymycin D1-amide [Muraymycin D1-amide (2)]”: the “M. tuberculosis growth inhibition MIC50” value in the experiment with M. tuberculosis was 1.56 mg/L; with M. tuberculosis (listed as 2), 1.56 to 6.25 mg/L.

“Muraymycin D1-diamide [Muraymycin D1-diamide (3)]”: the “Inhibition of WecA enzyme relative to 1 and 2” value in experiment [2] is on record as ~ 10 times. Further, the “M. tuberculosis growth inhibition MIC50” value was 6.25 mg/L in the experiment with M. tuberculosis and 1.56 to 6.25 mg/L in the experiment on M. tuberculosis (listed as 3).

With Tunicamycin, the half-inhibitory concentration (IC50) was 0.15 µM in experiment [2] and 3.38 µM at MurX (read-out: MurX inhibition IC50). In addition, in the experiment on M. tuberculosis, the “M. tuberculosis growth inhibition MIC50” value was 3.13 mg/L.

In general, IC50 refers to the concentration that inhibits the measured activity by half. What is called MIC50 is the lowest concentration that inhibits either 50% of growth or 50% of the strains tested, depending on the study. As usually defined, the ED50 is the dose that gives a 50% effect, or the effect in half of the subjects.
